From US4075190A, “Pentapeptide with morphine-like activity” (American Home Products Corporation, priority 1977, dated 1978)
Square brackets hold non-standard residues; d marks the D form. Peptide text beside a SMILES is read from it.

Legend:
rats [1] = test: rat-tail flick method, intracerebroventricular injection; type: in vivo; details: for Mean % Change ± SEM: change in latency, drug minus baseline; for Mean Latency ± SEM, Drug / analgesic effect / pain threshold: rat-tail flick; for Mean Latency ± SEM, Drug: after drug; for analgesic effect / pain threshold: injected into the lateral brain ventricle
Experimental: In this test method, which is a standard test for analgesia, a light beam is focused on the tip of the rat's tail, and the pain threshold of the animal is measured by the latency of the rat to remove his tail from the noxious heat source. When tested by the rat-tail flick method by intracerebroventricular injection, according to the procedure of Belluzzi et al., Nature, 260, 625 (1976), the pentapeptide H-Tyr-Gly-Gly-Phe-d-Lys-OH produced the effects set forth in Table I.
*All drugs were dissolved in […]. of Ringer's solution and injected int
the lateral ventricle through permanently-indwelling cannulae.

opiate receptors = test: displacement of 3H-naloxone from binding sites in rat brain homogenates
rats [2] = details: injection in the brain ventricle in rats; cited from earlier work
mouse vas deferens = details: cited from earlier work
guinea pig ileum = details: cited from earlier work
opiate receptor = details: brain homogenates; cited from earlier work
[3] = dose 10 μg into the lateral ventricle
[4] = dose 100 μg into the lateral ventricle

CN1CC[C@]23c4c5ccc(O)c4O[C@H]2[C@@H](O)C=C[C@H]3[C@H]1C5.O=S(=O)(O)O [Morphine Sulfate]
Mean % Change ± SEM (rats [1]; [3]): 65.4 ± 9.1%
Mean Latency ± SEM, Drug (rats [1]; [3]): 6.59 ± 0.73

NCCCC[C@@H](NC(=O)[C@H](Cc1ccccc1)NC(=O)CNC(=O)CNC(=O)[C@@H](N)Cc1ccc(O)cc1)C(=O)O [H-Tyr-Gly-Gly-Phe-D-Lys-OH, L-Tyrosyl-Glycyl-Glycyl-L-Phenylalanyl-D-Lysine] (H-YGGF[dK]-OH)
Mean % Change ± SEM (rats [1]; [4]): 78.97 ± 7.85%
analgesic effect / pain threshold (rats [1]): produced an increase in pain threshold
analgesic effect / pain threshold (rats [1]; listed as pentapeptide of Formula I): exerts an analgesic effect
Mean Latency ± SEM, Drug (rats [1]; [4]): 6.16 ± 0.06
binding to opiate receptors (opiate receptors; in vitro): weak binding
displacement of 3H-naloxone from binding sites (opiate receptors; rat brain homogenates): capable of displacing 3h-naloxone

H-Tyr-Gly-Gly-Phe-Leu-OH [leucine-enkephalin]
analgesia (rats [2]): induce a profound analgesia that is fully reversible by naloxone

CSCC[C@H](NC(=O)[C@H](Cc1ccccc1)NC(=O)CNC(=O)CNC(=O)[C@@H](N)Cc1ccc(O)cc1)C(=O)O [Methionine-Enkephalin, H-Tyr-Gly-Gly-Phe-Met-OH]
Mean % Change ± SEM (rats [1]; [4]): 37.2 ± 8.8%
Mean Latency ± SEM, Drug (rats [1]; [4]): 5.19 ± 0.31
block of electrically evoked contractions (mouse vas deferens): mimic the ability of morphine to block electrically evoked contractions
block of electrically evoked contractions (guinea pig ileum): mimic the ability of morphine to block electrically evoked contractions
inhibition of stereospecific receptor binding of 3H-naloxone (opiate receptor): inhibit the stereospecific receptor binding
analgesia (rats [2]): induce a profound analgesia that is fully reversible by naloxone
